Measured values reported in patent publication US10842779B2, “Heterocyclic compounds and their use in preventing or treating bacterial infections” (priority 2015, dated 2020).
Where two headings read alike, the source gives them in different places.

Legend:
[1] = target: CMY-37 (Citrobacter freundii); test: β-Lactamase inhibitory activity, nitrocefin hydrolysis; assay type: biochemical
OXA-11 = target: T1, OXA-11 (Pseudomonas aeruginosa, UniProt Q06778); test: as above; assay type: biochemical
T1 construct: made in house; host or cells: E. coli

SHV-1 = target: T2, SHV-1 (Klebsiella pneumoniae, UniProt P0AD64); test: as above; assay type: biochemical
T2 construct: made in house; host or cells: E. coli

OXA-1 = target: T3, OXA-1 (Escherichia coli, UniProt P13661); test: as above; assay type: biochemical; settings: class (D); 30 min pre-incubation
T3 construct: made in house; host or cells: E. coli

KPC-2 = target: T4, KPC-2 (Klebsiella pneumoniae, UniProt Q9F663); test: as above; assay type: biochemical; settings: class (A); 30 min pre-incubation
T4 construct: made in house; host or cells: E. coli

TEM-1 = target: T5, TEM-1 (Escherichia coli, UniProt P62593); test: as above; assay type: biochemical; settings: class (A); 30 min pre-incubation
T5 construct: made in house; host or cells: E. coli

CTX-M-15 = target: T6, CTX-M-15 (Escherichia coli, UniProt Q9EXV5); test: as above; assay type: biochemical; settings: class (A); 30 min pre-incubation
T6 construct: made in house; host or cells: E. coli

OXA-48 = target: T7, OXA-48 (Klebsiella pneumoniae, UniProt Q6XEC0); test: as above; assay type: biochemical; settings: class (D); 30 min pre-incubation
T7 construct: made in house; host or cells: E. coli

E. coli = test: MIC of compounds alone, broth microdilution; assay type: cell-based; settings: Escherichia coli, ECO 190317, beta-lactamases TEM-1, SHV-12, CTX-M-15 OXA-1, read-out: MIC
Experimental: (§1) Method 2: MIC of Compounds and Synergy with Ceftazidime Against Bacterial Isolates (Table 2 and 3)
(§2) Compounds of the present invention were assessed against genotyped bacterial strains alone or in combination with the β-lactam ceftazidime. In the assays, MICs of said compounds, or of ceftazidime at fixed concentrations of said compounds were determined by the broth microdilution method according to the Clinical Laboratory Standards Institute (CLSI—M7-A7). Briefly, compounds alone according to the invention were prepared in DMSO and spotted (2 μL each) on sterile polystyrene plates (Corning, 3788). Compounds and ceftazidime dilutions were prepared in DMSO and spotted (1 μL each) on sterile polystyrene plates (Corning, 3788). Log phase bacterial suspensions were adjusted to a final density of 5×10^5 cfu/mL in cation-adjusted Mueller-Hinton broth (Beckton-Dickinson) and added to each well (98 μL). Microplates were incubated for 16-20 h at 35° C. in ambient air. The MIC of the compounds was defined as the lowest concentration of said compounds that prevented bacterial growth as read by visual inspection. The MIC of ceftazidime at each compound concentration was defined as the lowest concentration of ceftazidime that prevented bacterial growth as read by visual inspection.

AmpC (P99) = AmpC (P99) (Enterobacter cloacae, UniProt P05364); test: biochemical
Experimental: (§3) Method 1: β-Lactamase Inhibitory Activity, Determination of IC50 (Table 1)
(§4) Enzyme activity was monitored by spectrophotometric measurement of nitrocefin (NCF-TOKU-E, N005) hydrolysis at 485 nm, at room temperature and in assay buffer A: 100 mM Phosphate pH7, 2% glycerol and 0.1 mg/mL Bovine serum albumin (Sigma, B4287). Enzymes were cloned in E. coli expression vector, expressed and purified in house using classical procedures. To a transparent polystyrene plate (Corning, 3628) were added in each well 5 μL DMSO or inhibitor dilutions in DMSO and 80 μL enzyme in buffer A. Plates were immediately read at 485 nm in a microplate spectrophotometer (BioTek, PowerWave HT) to enable background subtraction. After 30 min of pre-incubation at room temperature, 15 μL of NCF (200 μM final) were finally added in each well. Final enzyme concentrations were 0.1 nM (TEM-1), 0.075 nM (SHV-1), 0.4 nM (CTX-M-15), 1 nM (KPC-2), 0.2 nM (P99 AmpC), 0.2 nM (CMY-37), 0.4 nM (AmpC P. aeruginosa), 0.2 nM (OXA-1), 1.2 nM (OXA-11), 0.4 nM (OXA-15) and 0.3 nM (OXA-48). After 20 min incubation at room temperature, plates were once again read at 485 nm. Enzyme activity was obtained by subtracting the final signal by the background, and was converted to enzyme inhibition using non inhibited wells. IC50 curves were fitted to a classical Langmuir equilibrium model with Hill slope using XLFIT (IDBS).

AmpC (PAE) = AmpC (PAE) (Pseudomonas aeruginosa, UniProt P24735); test: biochemical
Experimental: as §3, §4

OXA-15 = target: T8, OXA-15 (Pseudomonas aeruginosa, UniProt Q51574); test: β-Lactamase inhibitory activity, nitrocefin hydrolysis; assay type: biochemical
T8 construct: made in house; host or cells: E. coli

K. pneumoniae [2] = test: Synergy with ceftazidime: MIC of ceftazidime at fixed concentration of compound; assay type: cell-based; settings: Klebsiella pneumoniae, read-out: MIC of CAZ + compound (4 μg/mL), KPN 6299; beta-lactamases TEM-1, SHV-11 OXA-163
Experimental: as §1, §2

E. cloacae [3] = test: as above; assay type: cell-based; settings: Enterobacter cloacae, ECL P99; beta-lactamases AmpC; read-out: MIC of CAZ + compound (4 μg/mL)
Experimental: as §1, §2

K. pneumoniae [4] = test: MIC of compounds alone, broth microdilution; assay type: cell-based; settings: Klebsiella pneumoniae, alone; KPN 6299; beta-lactamases TEM-1, SHV-11 OXA-163; read-out: MIC
Experimental: as §1, §2

E. cloacae [5] = test: MIC of compounds alone, broth microdilution; assay type: cell-based; settings: Enterobacter cloacae, ECL P99, beta-lactamases AmpC, read-out: MIC
Experimental: as §1, §2

Row | Structure (SMILES) | IC50 [1] | IC50 (OXA-11) | IC50 (SHV-1) | IC50 (OXA-1) | IC50 (KPC-2) | IC50 (TEM-1) | IC50 (CTX-M-15) | IC50 (OXA-48) | MIC (E. coli) | IC50 (AmpC (P99)) | IC50 (AmpC (PAE)) | IC50 (OXA-15) | IC50 ([1]; class (C), 30 min pre-incubation, read-out: IC50 β-lactamase CMY-37) | MIC (K. pneumoniae [2]) | MIC (E. cloacae [3]) | MIC (K. pneumoniae [4]) | MIC (E. cloacae [5])
1 | O=C(O)C(F)(F)F.O=C1N2C[C@H](c3scnc3[C@H]2c2nnc[nH]2)N1OS(=O)(=O)[O-].[Na+] (relative stereo) [Example 3, Sodium and 2,2,2-trifluoroacetate [trans-7-(4H-1,2,4-triazol-4-ium-3-yl)-9-oxo-3-thia-5,8,10-triaza-tricyclo[6.2.1.0^2,6]undeca-2(6),4-dien-10-yl]sulfate] | 30 nM | 190 nM | 140 nM | 1000 nM | 460 nM | 46 nM | 28 nM | 6.8 nM | 16 µg/mL | 13 nM | 570 nM | 1100 nM |  |  |  |  | 
2 | O=C1N2C[C@H](c3scnc3[C@H]2c2ncno2)N1OS(=O)(=O)[O-].[Na+] (relative stereo) [Example 4, Sodium [trans-7-(1,2,4-oxadiazol-5-yl)-9-oxo-3-thia-5,8,10-triaza-tricyclo[6.2.1.0^2,6]undeca-2(6),4-dien-10-yl]sulfate] |  | 6.5 nM | 1.4 nM | 170 nM | 3.2 nM | 1.1 nM | 0.64 nM | 0.34 nM | 16 µg/mL | 1.1 nM | 64 nM | 19 nM | 3.4 nM | 2 µg/mL | 2 µg/mL | > 32 µg/mL | 32 µg/mL
